# Laboratory results taken from patent US20050002859A1, “COX-2-targeted imaging agents” (Vanderbilt University, priority 2003, published 2005).
# Positions count from the first letter of the chain named. pIC50: −log10 of the molar value. Read-outs that look alike come from different tables or passages of the source.
# Experiments:
# ovine COX-1 = target: T1, ovine COX-1 (Ovis aries, UniProt P05979); experiment: Inhibition of purified ovine COX-1, TLC assay
# T1 sequence (P05979 25-600): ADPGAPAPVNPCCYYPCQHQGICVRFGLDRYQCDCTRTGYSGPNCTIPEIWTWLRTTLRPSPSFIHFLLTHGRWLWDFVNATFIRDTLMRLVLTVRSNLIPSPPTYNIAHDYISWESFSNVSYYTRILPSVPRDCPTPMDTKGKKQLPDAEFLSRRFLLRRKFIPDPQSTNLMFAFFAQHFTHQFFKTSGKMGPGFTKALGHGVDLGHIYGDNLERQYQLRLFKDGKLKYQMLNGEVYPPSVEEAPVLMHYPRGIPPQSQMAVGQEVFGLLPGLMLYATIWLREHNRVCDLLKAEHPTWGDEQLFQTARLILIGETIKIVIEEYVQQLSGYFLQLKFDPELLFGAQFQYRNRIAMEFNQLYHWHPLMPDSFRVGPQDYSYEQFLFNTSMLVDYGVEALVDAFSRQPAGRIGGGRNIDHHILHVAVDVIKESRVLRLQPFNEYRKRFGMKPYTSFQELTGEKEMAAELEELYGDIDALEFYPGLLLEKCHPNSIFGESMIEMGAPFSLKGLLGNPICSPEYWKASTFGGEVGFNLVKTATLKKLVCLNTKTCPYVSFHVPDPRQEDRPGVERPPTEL
# Description: (§2) One example of an in vitro screening method takes advantage of the fact that both human and murine recombinant COX-2 can be expressed and isolated in pure form from an Sf-9 cell expression system. Briefly, typical assays involve the incubation of COX-1 (44 nM) or COX-2 (66 nM) in a 200 μL reaction mixture containing 100 mM Tris-HCl, pH 8.0, 500 μM phenol and 50 μM ^14C-arachidonic acid (55 mCi/mmol) for 30 seconds at 37° C. […] The reaction is stopped by the addition of 200 μL of ethanol/methanol/1 M citrate, pH 4.0 (30:4:1). The extracted products are separated by thin layer chromatography (TLC), which allows quantitation of total product formation as well as assessment of product distribution. This assay is useful to define IC50 values for inhibition of either enzyme, and to determine time-dependency of inhibition. It also provides information concerning changes in products formed as a result of inhibition.
# (§3) Apoenzyme was reconstituted by the addition of hematin to the assay mixtures. Human COX-2 was expressed in Sf9 insect cells by means of the pVL 1393 expression vector (BD Biosciences Pharmingen, San Diego, Calif., United States of America) and purified by ion exchange and gel filtration chromatography. […]
# (§4) IC50 values for the inhibition of purified human COX-2 or ovine COX-1 by test compounds were determined by thin layer chromatography (TLC) radiography. […]
# COX-2 [1] = target: T2, COX-2 (Homo sapiens, UniProt P35354); experiment: biochemical
# T2 sequence (P35354 18-604): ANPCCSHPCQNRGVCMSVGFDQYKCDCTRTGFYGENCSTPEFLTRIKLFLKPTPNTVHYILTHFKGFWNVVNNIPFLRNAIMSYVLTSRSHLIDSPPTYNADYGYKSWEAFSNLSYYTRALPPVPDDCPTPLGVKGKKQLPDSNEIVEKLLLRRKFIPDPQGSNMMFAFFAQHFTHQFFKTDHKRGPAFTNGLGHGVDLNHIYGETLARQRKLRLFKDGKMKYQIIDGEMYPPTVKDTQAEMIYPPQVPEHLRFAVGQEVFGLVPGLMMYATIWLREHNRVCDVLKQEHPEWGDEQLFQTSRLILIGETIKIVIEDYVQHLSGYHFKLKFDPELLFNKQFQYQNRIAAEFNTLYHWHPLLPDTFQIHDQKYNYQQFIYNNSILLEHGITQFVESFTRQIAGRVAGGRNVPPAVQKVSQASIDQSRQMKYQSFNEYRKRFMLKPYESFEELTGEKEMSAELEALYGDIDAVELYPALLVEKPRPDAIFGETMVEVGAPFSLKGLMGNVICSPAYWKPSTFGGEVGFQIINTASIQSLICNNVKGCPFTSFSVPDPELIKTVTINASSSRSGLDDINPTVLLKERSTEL
# Description: as §2, §3, §4
# [2] = target: T3, COX-2 activity in RAW 264.7 murine macrophage cell line (Mus musculus, UniProt Q05769); experiment: Inhibition of COX-2 activity (PGD2 synthesis) in activated RAW264.7 macrophages; format: cell-based
# T3 construct: The macrophages were exposed to lipopolysaccharide and γ-interferon to induce COX-2; endogenous in cells
# T3 sequence (Q05769 18-604): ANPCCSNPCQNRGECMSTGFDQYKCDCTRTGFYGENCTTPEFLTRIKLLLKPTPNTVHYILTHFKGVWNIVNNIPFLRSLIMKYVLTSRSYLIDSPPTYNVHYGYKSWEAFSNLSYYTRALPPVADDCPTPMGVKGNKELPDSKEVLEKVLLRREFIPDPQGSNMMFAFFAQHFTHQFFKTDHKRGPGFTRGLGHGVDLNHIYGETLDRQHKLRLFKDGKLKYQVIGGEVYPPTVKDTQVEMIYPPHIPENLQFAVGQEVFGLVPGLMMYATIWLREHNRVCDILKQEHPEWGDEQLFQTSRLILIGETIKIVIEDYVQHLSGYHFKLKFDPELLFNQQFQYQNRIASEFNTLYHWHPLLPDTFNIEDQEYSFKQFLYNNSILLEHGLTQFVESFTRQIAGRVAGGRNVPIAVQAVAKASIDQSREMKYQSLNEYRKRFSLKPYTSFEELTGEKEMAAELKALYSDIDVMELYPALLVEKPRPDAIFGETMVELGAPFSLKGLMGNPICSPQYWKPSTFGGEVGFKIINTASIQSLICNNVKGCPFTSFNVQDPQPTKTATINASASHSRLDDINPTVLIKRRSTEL
# Excerpt: Thus, NSAID derivatives that are identified as potentially useful in the methods described herein can be further tested using, for example, the RAW264.7 murine macrophage cell line. These cells are readily available (for example, from the American Type Culture Collection, Manassas, Va., United States of America) and are easily cultured in large numbers. They normally express low levels of COX-1 and very low to undetectable levels of COX-2. Upon exposure to bacterial lipopolysaccharide (LPS), however, COX-2 levels increase dramatically over the ensuing 24 hour period, and the cells produce PGD2 and PGE2 from endogenous arachidonic acid stores (generally, ˜1 nmol/10^7 cells total PG formation). After LPS exposure, the addition of exogenous arachidonic acid results in the formation of additional PGD2 and PGE2 as a result of metabolism by the newly synthesized COX-2.
# This system provides a number of approaches for testing the inhibitory potency of COX-2-selective ligands (e.g., inhibitors). In general, following LPS activation, cells can be treated for 30 minutes with the desired concentrations of candidate derivative(s) in DMSO. ^14C-arachidonic acid can be added, and the cells can be incubated for 15 minutes at 37° C. Product formation can be assessed following extraction and TLC separation of the culture medium. Alternatively, the effects of candidate derivatives on PG synthesis from endogenous arachidonic acid can be assessed by incubating cells with desired concentrations of candidate derivatives 30 minutes prior to LPS exposure. Following a 24 hour incubation, medium can be collected and extracted, and the amount of PGD2 and/or PGE2 can be assayed by gas chromatography-mass spectrometry, liquid chromatography-mass spectrometry, or ELISA.
# Inhibition of COX-2 Activity in Activated RAW264.7. Protocols for COX-2 inhibition in RAW264.7 cells have been previously described (Kalgutkar et al., 1998b). Briefly, cells (6.2×10^6 cells/T25 flask) were activated with lipopolysaccharide (1 μg/mL) and γ-interferon (10 U/mL) in serum-free DMEM for 7 hours and then treated with inhibitor (0-2 μM) for 30 minutes at 37° C. Exogenous arachidonate metabolism was determined by adding [1-^14C]-arachidonate acid (20 μM) for 15 minutes at 37° C. IC50 values are the average of two independent determinations.
# The macrophages were exposed to lipopolysaccharide and γ-interferon to induce COX-2 and then treated with several concentrations of Compound 355.
# COX-2 [3] = target: T2, COX-2; experiment: Inhibition of purified COX-2 by NSAID derivatives (species not stated); format: biochemical; conditions: purified COX-2
# Description: (§1) While the TLC assay described above provides considerable information, it is labor-intensive for screening large numbers of candidate NSAID derivatives. Accordingly, as an alternative, a simplified assay can be used. Incubation conditions can be essentially as described above, except all candidate derivatives are first screened at a concentration of 1 mM with a preincubation time of 30 minutes. The substrate need not be radiolabeled, and the reaction can be stopped by the addition of 2 μL of formic acid. Product formation can be quantitated by enzyme-linked immunosorbent assay (ELISA) using commercially available kits. […] Other in vitro assay methods for screening NSAID derivatives for activity (e.g., selectivity for the COX-2 enzyme) can also be used by the skilled artisan.
# COX-1 [4] = target: T4, COX-1 (Ovis aries, UniProt P05979); experiment: Inhibition of COX-1 by NSAID derivatives (species not stated); format: biochemical
# T4 sequence (P05979 25-600): T1 sequence (P05979 25-600)
# Description: as §1
# COX-2 [5] = target: T2, COX-2; conditions: cited from earlier work
# [6] = system: rat carageenan footpad edema; experiment: Rat carageenan footpad edema model; format: in vivo; conditions: Rattus norvegicus, po; maximal edema 3 hours after carageenan injection; read-out: ED50 inhibition of edema formation
# Description: The first is the rat carageenan footpad model. Maximal edema is obtained in this model 3 hours after carageenan injection.
# [7] = system: PGE2 in pouch exudate (COX-2 activity); conditions: cited from earlier work
# S516A mutant of COX-2 = target: T5, S516A mutant of COX-2 (Homo sapiens, UniProt P35354, S516A); conditions: cited from earlier work
# T5 sequence (P35354 18-604 S516A): T2 sequence (P35354 18-604) with S499A
# [8] = target: T3, COX-2 activity in RAW 264.7 murine macrophage cell line; conditions: LPS-activated RAW 264.7; exogenous arachidonic acid; read-out: IC50 for inhibition of PGD2 synthesis; cited from earlier work
# [9] = system: HCT-15 colon cancer cells; conditions: HCT-15 cells, do not express COX-2; cited from earlier work
# gastric lesions = conditions: rat, in vivo, 100 mg/kg
# Sprague-Dawley rats = experiment: 14-day daily oral toxicity in Sprague-Dawley rats; format: in vivo; conditions: daily oral 100 mg/kg, at 14 days
# [10] = system: serum thromboxane B2 (COX-1 activity); conditions: cited from earlier work
# HCA-7 colon cancer cells = conditions: HCA-7 cells, express high levels of COX-2; read-out: IC50 growth in soft agar; cited from earlier work
# COX-1 [11] = target: T4, COX-1; conditions: cited from earlier work
# [12] = activated RAW 264.7 cells, read-out: IC50 for inhibition of PGD2 synthesis/production
smiles,measurement,setting,value
"COc1ccc2c(c1)c(CC(=O)Nc1ccc(F)cc1)c(C)n2C(=O)c1ccc(Cl)cc1F [Compound 360, 2-[1-(4-Chloro-2-fluoro-benzoyl)-5-methoxy-2-methyl-1H-indol-3-yl]-N-(4-fluoro-phenyl)-acetamide]",pIC50,ovine COX-1,< 4.22
same,pIC50,COX-2 [1],7.00
"O=C(c1ccccc1)c1ccc2n1CCC2C(=O)NCc1ccc(F)cc1 (stereo not drawn) [Compound 19, p-fluorobenzyl derivative of ketorolac amide]",pIC50,[2]; [12],6.70
same,pIC50,COX-2 [3],7.10
same,pIC50,COX-1 [4],< 4.19
"COc1ccc2c(c1)c(CC(=O)NCCNC(=O)c1ccc(F)cc1)c(C)n2C(=O)c1ccc(Cl)cc1 [Compound 355, N-(2-{2-[1-(4-Chloro-benzoyl)-5-methoxy-2-methyl-1H-indol-3-yl]-acetylamino}-ethyl)-4-fluoro-benzamide]",pIC50,[2]; [12],6.30
same,pIC50,ovine COX-1,< 4.22
same,pIC50,COX-2 [1],6.99
"CCCCC#CCSc1ccccc1OC(C)=O [APHS, o-(acetoxyphenyl)hept-2-ynyl sulfide]",selectivity for COX-2 relative to aspirin,COX-2 [5],100 times
same,time to complete inactivation of COX-2,COX-2 [5],≤ 30 min
same,kinact/Ki,COX-2 [5]; irreversible inactivation of COX-2,~3000 M⁻¹ s⁻¹
same,ED50,[6],6 mg/kg
same,reduction of PGE2 levels in pouch exudate,[7]; dose of 5 mg/kg,95%
same,reduction of pouch PGE2 levels,[7]; dose of 50 mg/kg,100%
same,inhibitory effect on S516A mutant of COX-2,S516A mutant of COX-2,resistant
same,pIC50,[8],6.92
same,effect on growth,[9],no effect
same,gastric toxicity,gastric lesions,no gastric toxicity
same,toxicities by gross or histopathological evaluation,Sprague-Dawley rats,no detectable toxicities
same,effect on serum TXB2 levels,[10]; dose of 5 mg/kg,no effect
same,reduction of serum TXB2 levels,[10]; dose of 50 mg/kg,11%
same,pIC50,HCA-7 colon cancer cells,5.70
COc1ccc2c(c1)c(CC(=O)NCCOC(=O)c1cc(I)cc(I)c1I)c(C)n2C(=O)c1ccc(Cl)cc1 [Compound 5],pIC50,[2]; read-out: IC50 for inhibition of COX-2 activity in RAW 264.7 macrophages,5.46
same,pIC50,COX-2 [3],7.30
same,pIC50,COX-1 [4],< 4.30
CC(=O)Oc1ccccc1C(=O)O [aspirin],potency against COX-1 relative to COX-2,COX-1 [11],10-100 times
same,ED50,[6],125 mg/kg
